Experimental data as given in patent US20220408724A1, “METHOD FOR CONTROLLING METABOLISM OF BRANCHED FATTY ACID” (KAO CORPORATION, priority 2019, published 2022).

What was measured:
Type in all cases: cell-based
Rhodotorula mucilaginosa = test: Suppression of metabolism of 14-methylhexadecanoic acid on cotton fabric; details: agent 250 μg/fabric g
Procedure: A methanol solution in which 14-methylhexadecanoic acid (SIGMA-ALDRICH) was dissolved was added dropwise to 3 cm×3 cm pieces of sterilized plain-weave cotton fabric to make it adhered to the fabric. The adhesion amount of 14-methylhexadecanoic acid was set to 10 μg per piece of the plain-weave cotton fabric (100 μg/fabric g).
Further, a methanol solution in which each metabolism controlling agent was dissolved was prepared and added dropwise to the fabric to which 14-methylhexadecanoic acid adhered, and it was thereafter dried for an hour. This fabric was placed in a sterilized screw tube bottle No. 3 (Maruemu Corporation) and 100 μl of the bacterial suspension was inoculated thereto, and culture was carried out under 37° C.; conditions for 21 hours.
(§1) 3 ml of methanol was added to the screw tube bottle after culture, and extraction was carried out under ultrasonic irradiation for 30 minutes (20° C.). The extraction liquid was mixed with a (trimethylsilyl)diazomethane hexane solution (FUJIFILM Wako Pure Chemical Corporation) at 9:1 (volume ratio) and left overnight under room temperature and dark place conditions. After that, 14-methylhexadecanoic acid remaining on the fabric was quantified by GC. The quantification conditions for GC are as follows. • GC: Agilent 7890A • GC column: Agilent DB-1 30 m×250 μm×0.25 μm • Temperature rise condition: 50° C. (held for 3 minutes)-(10° C./min)-300° C. (held for 5 minutes) • Sample injection volume: 1 μl • Split ratio: 1:12 • Detector: FID
(§2) The residual amount of 14-methylhexadecanoic acid after culture on the fabric to which the metabolism controlling agent was added was quantified, and the ratio of the residual amount to that of 14-methylhexadecanoic acid in the case of adding no metabolism controlling agent (control) was calculated as a metabolism suppression rate (%). The higher a numerical value thereof is, the more the metabolism is suppressed. Note that the metabolism suppression rate was determined by the following formula:
Metabolism suppression rate(%)=[1−(100−A)/(100−B)]×100 • A: residual amount of 14-methylhexadecanoic acid of example or comparative example (μg/fabric g) • B: residual amount of 14-methylhexadecanoic acid of control (μg/fabric g)
The metabolism of 14-methylhexadecanoic acid by yeast of the genus Rhodotorula was tested in the same manner as in example 1.
In this example, Rhodotorula mucilaginosa (strain isolated from clothing) was used as a microorganism.
Further, in this example, the bacteria were precultured under conditions of a PDA agar medium (Difco), 30° C.; and 48 hours.
Further, in this example, a bacterial suspension of 10^7 (CFU/ml) prepared by using a PDB liquid medium (Difco) diluted to 1/10 with ion exchange water was used as a bacterial suspension.

Moraxella osloensis [1] = test: Examination example: suppression of metabolism of 14-methylhexadecanoic acid, components (a) and (b)/(b′); details: single agent 100 μg/fabric g
Procedure: The suppression of metabolism of 14-methylhexadecanoic acid by bacteria of the genus Moraxella and the suppression of a metabolite therefrom were tested in the following manner.
Moraxella osloensis (strain isolated from clothing) was precultured on an SCD-LP agar medium (NIHON PHARMACEUTICAL CO., LTD.) at 37° C.; for 24 hours, and a bacterial suspension of 10^6 (CFU/ml) was prepared by using an NB liquid medium (Difco) diluted to 1/20 with ion exchange water.
A methanol solution in which 14-methylhexadecanoic acid (SIGMA-ALDRICH) was dissolved was added dropwise to 3 cm×3 cm pieces of sterilized plain-weave cotton fabric to make it adhered to the fabric. The adhesion amount of 14-methylhexadecanoic acid was set to 10 μg per piece of the plain-weave cotton fabric (100 μg/fabric g). Further, a methanol solution in which component (a) was dissolved, and then, a methanol solution in which component (b) or (b′) was dissolved were added dropwise to the fabric to which 14-methylhexadecanoic acid adhered, and it was thereafter dried for an hour. This fabric was placed in a sterilized screw tube bottle No. 3 (Maruemu Corporation) and 100 μl of the bacterial suspension was inoculated thereto, and culture was carried out under 37° C.; conditions for 21 hours.
as §1, with “6890N” for “7890A”
as §2, with “which each” for “which the”
Metabolism suppression rate(%)=[1−(100−A)/(100−B)]×100 • A: residual amount of 14-methylhexadecanoic acid of reference or examination example (μg/fabric g) • B: residual amount of 14-methylhexadecanoic acid of control (μg/fabric g)
A control is an example in which none of component (a), (b) or (b′) is added, and references 1-1, 2-1, 3-1 and 4-1 qualify as this (the same applies hereinafter). In these controls, the metabolism suppression rate is 0′.

Moraxella osloensis [2] = test: Examination example: measurement of viable bacterial count; details: single agent 100 μg/fabric g
Procedure: After culture on fabric prepared in the same manner as in the above (1), 9 mL of an LP diluent (manufactured by NIHON PHARMACEUTICAL CO., LTD.) was added, and the extraction of the bacteria was carried out under ultrasound for 10 minutes. The extraction liquid was poured and mixed to an SCD-LP agar medium (NIHON PHARMACEUTICAL CO., LTD.), and culture was thereafter carried out at 37° C.; for a day. The number of colonies obtained on each piece of the fabric was counted, and a common logarithm value thereof was measured as the viable bacterial count. […] In addition, the […], the more the viable bacterial count of the microorganism is maintained.

## CCCCCCCCCCCCO [Example C12OH, 1-dodecanol]
Rhodotorula mucilaginosa
  Metabolism suppression rate (%): 68%
Moraxella osloensis [1]; 14-methylhexadecanoic acid
  Metabolism of branched fatty acid: Residual amount (μg/fabric g): 59 μg/fabric g
Moraxella osloensis [1]
  Metabolism of branched fatty acid: Metabolism suppression rate (%): 33%
Moraxella osloensis [2]
  Viable bacterial count (Log (cfu/fabric cm^2)): 6.2 Log (cfu/fabric cm^2)
